Measured values taken from patent US20240108009A1, “1-AMINO-1-CYCLOPROPANECARBOXYLIC ACID AND JASMONIC ACID MIXTURES AND USES THEREOF” (Valent BioSciences LLC, priority 2022, published 2024).

Experiments:
Assay type in all cases: in vivo
Gala apples [1] = assay: Apple coloration in Gala variety (Example 2, Table 2); settings: 34 hours post spray; for Average % Red Pixel Area: 300 ppm foliar spray; for Fold Change From control: 300 ppm
Experimental: (§1) To determine if the mixture provided unexpected results, the observed combined efficacy (“OCE”) was divided by the expected combined efficacy (“ECE”) wherein the ECE is calculated by the Abbott method: […]
(§2) wherein ECE is the expected combined efficacy and in which A and B are the fold change from control given by the single active ingredients. If the ratio between the OCE of the mixture and the ECE of the mixture is greater than 1, then greater than expected interactions are present in the mixture. (Gisi, Synergistic Interaction of Fungicides in Mixtures, The American Phytopathological Society, 86:11, 1273-1279, 1996).
(§3) 10 sets of unripened apples, Gala variety, harvested three weeks before the normal harvest date, were each foliar sprayed with either 1) 0.05% Regulaid® as a control, 2) 300 ppm jasmonic acid, 3) 300 ppm ACC or 4) a mixture of 300 ppm jasmonic acid and 300 ppm ACC. 34 hours post spray application percent red pixel area (shaded) was measured. Additionally, this study was repeated while adding [S]-trans-2-Amino-4-(2-aminoethoxy)-3-butenoic acid hydrochloride (Retain®, Retain is a registered trademark of Valent BioSciences LLC) to the application.

Aztec Fuji apples = assay: Apple coloration in Aztec Fuji variety (Example 8); settings: 34 hours post spray
Experimental: as §1, §2
(§4) 10 sets of unripened apples, Aztec Fuji variety, harvested three weeks before the normal harvest date, were each foliar sprayed with either 1) 0.05% Regulaid® as a control, 2) 50 ppm jasmonic acid, 3) 300 ppm jasmonic acid, 4) 50 ppm ACC, 5) 300 ppm ACC, 6) a mixture of 50 ppm jasmonic acid and 50 ppm ACC, 7) a mixture of 50 ppm jasmonic acid and 300 ppm ACC, 8) a mixture of 300 ppm jasmonic acid and 50 ppm ACC or 9) a mixture of 300 ppm jasmonic acid and 300 ppm ACC. 34 hours post spray application percent red pixel area (shaded) was measured.

Fuji apples = assay: Apple coloration in Fuji variety (Example 6); settings: 34 hours post spray
Experimental: as §1, §2
as §4, with “apples,” for “apples, Aztec”

Honeycrisp apples [2] = assay: Apple coloration in Honeycrisp variety (Example 1), percent red pixel area; settings: 43 hours post spray; for Average % Red Pixel Area: 50 ppm foliar spray; for Fold Change From control: 50 ppm
Experimental: 10 sets of unripened green apples, Honeycrisp variety, harvested three weeks before the normal harvest date, were each foliar sprayed with either 1) 0.05% of a mixture of polyoxyethylene-polyoxypropylene polymer, propylene glycol, 2-butoxyethanol (Regulaid®, Regulaid is a registered trademark of Kalo, Inc.) as a control, 2) 50 parts per million (“ppm”) jasmonic acid, 3) 50 ppm ACC or 4) a mixture of 50 ppm jasmonic acid and 50 ppm ACC. 43 hours post spray application percent red pixel area (shaded) was measured. Percent red pixel area is an indication of the coloration of the apple fruit.
as §1, §2

Cripps Pink apples [3] = assay: Apple coloration in Cripps Pink variety, repeat (Example 11); settings: Cripps Pink (Example 11, repeat), 34 hours post spray
Experimental: as §1, §2
as §4, with “The experiment detailed in Example 10 was repeated. Specifically, 10” for “10”, “Cripps Pink” for “Aztec Fuji”, “measured. The OCE/ECE ratio formula was modified to ECE=A+B−(A*B) to account for reduced average % red pixel area over control for each of the ACC applications.” for “measured.”

Cripps Pink apples [4] = assay: Apple coloration in Cripps Pink variety (Example 10); settings: Cripps Pink (Example 10), 34 hours post spray
Experimental: as §1, §2
as §4, with “Cripps Pink” for “Aztec Fuji”

Evercrisp apples = assay: Apple coloration in Evercrisp variety (Example 9); settings: 34 hours post spray
Gala apples [5] = assay: Apple coloration in Gala variety, study repeated with Retain added (Example 2, Table 3); settings: 300 ppm, 34 hours post spray; for Average % Red Pixel Area: Retain added to the application; for Fold Change From control: Retain added
Experimental: as §1, §2, §3

Pink Lady apples [6] = assay: Apple coloration in Pink Lady variety, 100 ppm (Example 13); settings: 34 hours post spray
Experimental: as §1, §2
(§5) 10 sets of unripened apples, Pink Lady variety, harvested three weeks before the normal harvest date, were each foliar sprayed with either 1) 0.05% Regulaid® as a control, 2) 100 ppm jasmonic acid, 3) 100 ppm ACC and 4) a mixture of 100 ppm jasmonic acid and 100 ppm ACC. 34 hours post spray application percent red pixel area (shaded) was measured. The OCE/ECE ratio formula was modified to ECE=A+B−(A*B) to account for reduced average % red pixel area over control for each of the ACC applications.

Honeycrisp apples [7] = assay: Apple coloration in Honeycrisp variety (Example 5); settings: 34 hours post spray
Experimental: as §1, §2
as §4, with “Honeycrisp” for “Aztec Fuji”

Imperial Gala apples = assay: Apple coloration in Imperial Gala variety (Example 3); settings: 34 hours post spray
Experimental: as §1, §2
as §4, with “Imperial Gala” for “Aztec Fuji”, “ppm” for “ppm ACC, 7) a mixture of 50 ppm jasmonic acid and 300 ppm ACC, 8) a mixture of 300 ppm jasmonic acid and 50 ppm”, “7)” for “9)”

Pink Lady apples [8] = assay: Apple coloration in Pink Lady variety (Example 12); settings: 34 hours post spray
Experimental: as §1, §2
as §5, with “2) 50” for “2) 100”, “3) 300” for “3) 100”, “ppm jasmonic acid,” for “ppm ACC and”, “4) 50 ppm ACC, 5) 300 ppm ACC, 6)” for “4)”, “of 50” for “of 100”, “and 50 ppm ACC, 7) a mixture of 50 ppm jasmonic acid and 300 ppm ACC, 8) a mixture of 300 ppm jasmonic acid and 50 ppm ACC or 9) a mixture of 300 ppm jasmonic acid and 300” for “and 100”

Ultima Gala apples = assay: Apple coloration in Ultima Gala variety (Example 4); settings: 34 hours post spray
Red Aztec Fuji apples = assay: Apple coloration in Red Aztec Fuji variety (Example 7); settings: 34 hours post spray
Experimental: as §1, §2
as §4, with “apples, Red” for “apples,”

CC/C=C\C[C@H]1C(=O)CC[C@@H]1CC(=O)O [jasmonic acid]
Average % Red Pixel Area (Gala apples [1]): 61.5%
Fold Change From control (Gala apples [1]): 15.53
Average % Red Pixel Area (Aztec Fuji apples; 50 ppm): 38.27%
Fold Change From control (Aztec Fuji apples; 50 ppm): 0.20
Average % Red Pixel Area (Aztec Fuji apples; 300 ppm): 71.99%
Fold Change From control (Aztec Fuji apples; 300 ppm): 1.25
Average % Red Pixel Area (Fuji apples; 50 ppm): 24.55%
Fold Change From control (Fuji apples; 50 ppm): 0.21
Average % Red Pixel Area (Fuji apples; 300 ppm): 60.29%
Fold Change From control (Fuji apples; 300 ppm): 1.98
Average % Red Pixel Area (Honeycrisp apples [2]): 38.66%
Fold Change From control (Honeycrisp apples [2]): 9.64
Average % Red Pixel Area (Cripps Pink apples [3]; 50 ppm): 63.91%
Fold Change From control (Cripps Pink apples [3]; 50 ppm): 1.30
Average % Red Pixel Area (Cripps Pink apples [3]; 300 ppm): 85.52%
Fold Change From control (Cripps Pink apples [3]; 300 ppm): 1.74
Average % Red Pixel Area (Cripps Pink apples [4]; 50 ppm): 30.79%
Fold Change From control (Cripps Pink apples [4]; 50 ppm): 3.80
Average % Red Pixel Area (Cripps Pink apples [4]; 300 ppm): 79.81%
Fold Change From control (Cripps Pink apples [4]; 300 ppm): 9.84
Average % Red Pixel Area (Evercrisp apples; 50 ppm): 40.67%
Fold Change From control (Evercrisp apples; 50 ppm): 1.15
Average % Red Pixel Area (Evercrisp apples; 300 ppm): 70.81%
Fold Change From control (Evercrisp apples; 300 ppm): 2.75
Average % Red Pixel Area (Gala apples [5]): 24.85%
Fold Change From control (Gala apples [5]): 5.41
Average % Red Pixel Area (Pink Lady apples [6]): 49.9%
Fold Change From control (Pink Lady apples [6]): 2.06
Average % Red Pixel Area (Honeycrisp apples [7]; 50 ppm): 5.00%
Fold Change From control (Honeycrisp apples [7]; 50 ppm): −0.46
Average % Red Pixel Area (Honeycrisp apples [7]; 300 ppm): 31.37%
Fold Change From control (Honeycrisp apples [7]; 300 ppm): 2.42
Average % Red Pixel Area (Imperial Gala apples; 50 ppm): 30.90%
Fold Change From control (Imperial Gala apples; 50 ppm): 3.54
Average % Red Pixel Area (Imperial Gala apples; 300 ppm): 45.18%
Fold Change From control (Imperial Gala apples; 300 ppm): 5.65
Average % Red Pixel Area (Pink Lady apples [8]; 50 ppm): 68.55%
Fold Change From control (Pink Lady apples [8]; 50 ppm): 1.91
Average % Red Pixel Area (Pink Lady apples [8]; 300 ppm): 76.7%
Fold Change From control (Pink Lady apples [8]; 300 ppm): 2.13
Average % Red Pixel Area (Ultima Gala apples; 50 ppm): 43.46%
Fold Change From control (Ultima Gala apples; 50 ppm): 2.91
Average % Red Pixel Area (Ultima Gala apples; 300 ppm): 63.02%
Fold Change From control (Ultima Gala apples; 300 ppm): 4.67
Average % Red Pixel Area (Red Aztec Fuji apples; 50 ppm): 22.53%
Fold Change From control (Red Aztec Fuji apples; 50 ppm): 0.26
Average % Red Pixel Area (Red Aztec Fuji apples; 300 ppm): 75.2%
Fold Change From control (Red Aztec Fuji apples; 300 ppm): 3.21

NC1(C(=O)O)CC1 [ACC, 1-amino-1-cyclopropanecarboxylic acid]
Average % Red Pixel Area (Gala apples [1]): 3.63%
Fold Change From control (Gala apples [1]): 0.92
Average % Red Pixel Area (Aztec Fuji apples; 50 ppm): 35.07%
Fold Change From control (Aztec Fuji apples; 50 ppm): 0.10
Average % Red Pixel Area (Aztec Fuji apples; 300 ppm): 29.25%
Fold Change From control (Aztec Fuji apples; 300 ppm): −0.09
Average % Red Pixel Area (Fuji apples; 50 ppm): 20.61%
Fold Change From control (Fuji apples; 50 ppm): 0.02
Average % Red Pixel Area (Fuji apples; 300 ppm): 25.47%
Fold Change From control (Fuji apples; 300 ppm): 0.26
Average % Red Pixel Area (Honeycrisp apples [2]): 4.74%
Fold Change From control (Honeycrisp apples [2]): 1.18
Average % Red Pixel Area (Cripps Pink apples [3]; 50 ppm): 34.68%
Fold Change From control (Cripps Pink apples [3]; 50 ppm): 0.70
Average % Red Pixel Area (Cripps Pink apples [3]; 300 ppm): 48.78%
Fold Change From control (Cripps Pink apples [3]; 300 ppm): 0.99
Average % Red Pixel Area (Cripps Pink apples [4]; 50 ppm): 54.12%
Fold Change From control (Cripps Pink apples [4]; 50 ppm): 6.67
Average % Red Pixel Area (Cripps Pink apples [4]; 300 ppm): 57.97%
Fold Change From control (Cripps Pink apples [4]; 300 ppm): 7.15
Average % Red Pixel Area (Evercrisp apples; 50 ppm): 46.78%
Fold Change From control (Evercrisp apples; 50 ppm): 1.48
Average % Red Pixel Area (Evercrisp apples; 300 ppm): 72.16%
Fold Change From control (Evercrisp apples; 300 ppm): 2.82
Average % Red Pixel Area (Gala apples [5]): 4.71%
Fold Change From control (Gala apples [5]): 1.03
Average % Red Pixel Area (Pink Lady apples [6]): 19.32%
Fold Change From control (Pink Lady apples [6]): 0.80
Average % Red Pixel Area (Honeycrisp apples [7]; 50 ppm): 4.70%
Fold Change From control (Honeycrisp apples [7]; 50 ppm): −0.49
Average % Red Pixel Area (Honeycrisp apples [7]; 300 ppm): 3.80%
Fold Change From control (Honeycrisp apples [7]; 300 ppm): 0.59
Average % Red Pixel Area (Imperial Gala apples; 50 ppm): 7.02%
Fold Change From control (Imperial Gala apples; 50 ppm): 0.03
Average % Red Pixel Area (Imperial Gala apples; 300 ppm): 4.66%
Fold Change From control (Imperial Gala apples; 300 ppm): −0.31
Average % Red Pixel Area (Pink Lady apples [8]; 50 ppm): 24.63%
Fold Change From control (Pink Lady apples [8]; 50 ppm): 0.68
Average % Red Pixel Area (Pink Lady apples [8]; 300 ppm): 28.83%
Fold Change From control (Pink Lady apples [8]; 300 ppm): 0.80
Average % Red Pixel Area (Ultima Gala apples; 50 ppm): 10.44%
Fold Change From control (Ultima Gala apples; 50 ppm): −0.06
Average % Red Pixel Area (Ultima Gala apples; 300 ppm): 14.87%
Fold Change From control (Ultima Gala apples; 300 ppm): 0.34
Average % Red Pixel Area (Red Aztec Fuji apples; 50 ppm): 17.08%
Fold Change From control (Red Aztec Fuji apples; 50 ppm): −0.04
Average % Red Pixel Area (Red Aztec Fuji apples; 300 ppm): 15.84%
Fold Change From control (Red Aztec Fuji apples; 300 ppm): −0.11
